# Measurements: patent publication US20210009613A1, “ARYLPHOSPHINE OXIDES FOR INHIBITING KINASE ACTIVITY” (Shenzhen TargetRx, Inc., priority 2017, published 2021)
# Key:
# I1171N/T/S = conditions: Crizotinib-resistant mutation; cited from earlier work
# F1174C/V = conditions: Crizotinib-resistant mutation; cited from earlier work
# G1202R = G1202R (Homo sapiens, UniProt Q9UM73, G1202R); conditions: Crizotinib-resistant mutation; cited from earlier work
# ALK [WT] = ALK [WT] (Homo sapiens, UniProt Q9UM73); experiment: Kinase inhibition assay, ALK [WT]; format: biochemical
# Method: (§1) Compound preparation: The test compounds were dissolved in DMSO to make 20 mM stock solutions. The compounds were diluted in DMSO to 0.1 mM (a dilution with 100 times the final concentration) before use, and a 3-fold series gradient dilution with 11 concentrations was made. Dilutions with 4 times of the final concentration were prepared by diluting with buffer when dosing.
# (§2) Kinase assay: after preparing the buffer solution, the enzyme was mixed with pre-diluted compounds with different concentrations, and placed at room temperature for 30 minutes in duplicate. The corresponding substrate and ATP were added thereto and reacted at room temperature for 60 minutes (both a negative and a positive control were set). After the reaction, antibody was added for detection, and after incubation at room temperature for 60 minutes, Evnvision detection was carried out, and data was collected. Data was analyzed and fit according to XLfit5 software. IC50 was calculated by the following formula: (IC50=[(ABS test-ABS begin)/(ABS control-ABS begin)]×100).
# ALK [L1196M] = ALK [L1196M] (Homo sapiens, UniProt Q9UM73, L1196M); experiment: Kinase inhibition assay, ALK [L1196M]; format: biochemical
# Method: as §1, §2
# Ba/F3 parental = experiment: Cytotoxicity test (CellTiter-Glo), Ba/F3 parental; format: cell-based; conditions: Mus musculus, BaF3, 72 hours
# Method: (§3) The in vitro anti-proliferative activity of the compounds of the present disclosure against three types of cells that are cultured in vitro was tested by CellTiter-Glo method.
# (§4) Cell lines: Ba/F3 parental; Ba/F3 [EML4-ALK] (From WuXi PharmaTech) and Ba/F3 [EML4-ALK L1196M] (From WuXi PharmaTech); wherein, Ba/F3 parental was cultured in RPMI1640 medium containing 10 ng/ml IL-3, […], 100 U/ml penicillin, and 100 μg/ml streptomycin, Ba/F3 [EML4-ALK] and Ba/F3 [EML4-ALK L1196M] were cultured in RPMI1640 medium containing 10% fetal bovine serum, 100 U/ml penicillin, and 100 μg/ml streptomycin.
# (§5) Reagents and materials: RPMI-1640 (GIBCO, Cat. No. A10491-01); fetal bovine serum (GIBCO, Cat. No. 10099141); 0.25% trypsin-EDTA (GIBCO, Cat. No. 25200); penicillin-streptomycin, liquid (GIBCO, Cat. No. 15140-122); DMSO (Sigma, Cat. No. D2650); CellTiter-Glo Test Kit (Promega, Cat. No. G7572), and 96-well plate (Corning, Cat. No. 3365).
# (§6) Specific experimental procedures: • 1. The test compounds were dissolved in DMSO to make stock solutions and subjected to a series gradient dilution to give solutions with 10-fold working concentration. • 2. The cells in the logarithmic growth phase were diluted with the culture solution to adjust to the specific cell concentration, 90 μl of cell suspension was added to the 96-well plate to make the cell density reach the specified concentration. The plate was incubated in a incubator at 37° C., containing 5% carbon dioxide gas overnight. • 3. 10 μl drug solutions were added to each well of the 96-well plate inoculated with cells. 10 concentrations of the compounds were tested starting from the highest concentration of 20 μM with a 3-fold series gradient dilution in duplicate. • 4. After continuously cultured for 72 hours, the cells were detected by CellTiter-Glo for the cell viability. The dose-effect curve was made using GraphPad Prism software and IC50 was calculated.
# Ba/F3 [EML4-ALK] [1] = target: T1, Ba/F3 [EML4-ALK] (Homo sapiens, UniProt Q9UM73); experiment: Cytotoxicity test (CellTiter-Glo), Ba/F3 [EML4-ALK]; format: cell-based; conditions: 72 hours, CellTiter-Glo; read-out: IC50(nM) ALK (Ba/F3)
# T1 construct: IC50(nM) ALK (Ba/F3); other: 72 hours, CellTiter-Glo; Ba/F3 [EML4-ALK]; fused on or other part: Q9HC35 (Echinoderm microtubule-associated protein-like 4)
# Method: as §3, §4, §5, §6
# Ba/F3 [EML4-ALK] [2] = experiment: as above; format: cell-based; conditions: ratio of Ba/F3 IC50 values
# Method: as §3, §4, §5, §6
# Ba/F3 [EML4-ALK L1196M] [3] = target: T2, Ba/F3 [EML4-ALK L1196M] (Homo sapiens, UniProt Q9UM73, L1196M, cells depend on it); experiment: Cytotoxicity test (CellTiter-Glo), Ba/F3 [EML4-ALK L1196M]; format: cell-based; conditions: 72 hours, CellTiter-Glo; read-out: IC50(nM) ALK[L1196M] (Ba/F3)
# T2 construct: IC50(nM) ALK[L1196M]; (Ba/F3); other: 72 hours, CellTiter-Glo; Ba/F3 [EML4-ALK L1196M]; fused on or other part: Q9HC35 (Echinoderm microtubule-associated protein-like 4)
# Method: as §3, §4, §5, §6
# Ba/F3 [EML4-ALK L1196M] [4] = experiment: as above; format: cell-based; conditions: ratio of Ba/F3 IC50 values
# Method: as §3, §4, §5, §6
# T2 sequence (Q9UM73 whole entry L1196M, the tested form may be a part): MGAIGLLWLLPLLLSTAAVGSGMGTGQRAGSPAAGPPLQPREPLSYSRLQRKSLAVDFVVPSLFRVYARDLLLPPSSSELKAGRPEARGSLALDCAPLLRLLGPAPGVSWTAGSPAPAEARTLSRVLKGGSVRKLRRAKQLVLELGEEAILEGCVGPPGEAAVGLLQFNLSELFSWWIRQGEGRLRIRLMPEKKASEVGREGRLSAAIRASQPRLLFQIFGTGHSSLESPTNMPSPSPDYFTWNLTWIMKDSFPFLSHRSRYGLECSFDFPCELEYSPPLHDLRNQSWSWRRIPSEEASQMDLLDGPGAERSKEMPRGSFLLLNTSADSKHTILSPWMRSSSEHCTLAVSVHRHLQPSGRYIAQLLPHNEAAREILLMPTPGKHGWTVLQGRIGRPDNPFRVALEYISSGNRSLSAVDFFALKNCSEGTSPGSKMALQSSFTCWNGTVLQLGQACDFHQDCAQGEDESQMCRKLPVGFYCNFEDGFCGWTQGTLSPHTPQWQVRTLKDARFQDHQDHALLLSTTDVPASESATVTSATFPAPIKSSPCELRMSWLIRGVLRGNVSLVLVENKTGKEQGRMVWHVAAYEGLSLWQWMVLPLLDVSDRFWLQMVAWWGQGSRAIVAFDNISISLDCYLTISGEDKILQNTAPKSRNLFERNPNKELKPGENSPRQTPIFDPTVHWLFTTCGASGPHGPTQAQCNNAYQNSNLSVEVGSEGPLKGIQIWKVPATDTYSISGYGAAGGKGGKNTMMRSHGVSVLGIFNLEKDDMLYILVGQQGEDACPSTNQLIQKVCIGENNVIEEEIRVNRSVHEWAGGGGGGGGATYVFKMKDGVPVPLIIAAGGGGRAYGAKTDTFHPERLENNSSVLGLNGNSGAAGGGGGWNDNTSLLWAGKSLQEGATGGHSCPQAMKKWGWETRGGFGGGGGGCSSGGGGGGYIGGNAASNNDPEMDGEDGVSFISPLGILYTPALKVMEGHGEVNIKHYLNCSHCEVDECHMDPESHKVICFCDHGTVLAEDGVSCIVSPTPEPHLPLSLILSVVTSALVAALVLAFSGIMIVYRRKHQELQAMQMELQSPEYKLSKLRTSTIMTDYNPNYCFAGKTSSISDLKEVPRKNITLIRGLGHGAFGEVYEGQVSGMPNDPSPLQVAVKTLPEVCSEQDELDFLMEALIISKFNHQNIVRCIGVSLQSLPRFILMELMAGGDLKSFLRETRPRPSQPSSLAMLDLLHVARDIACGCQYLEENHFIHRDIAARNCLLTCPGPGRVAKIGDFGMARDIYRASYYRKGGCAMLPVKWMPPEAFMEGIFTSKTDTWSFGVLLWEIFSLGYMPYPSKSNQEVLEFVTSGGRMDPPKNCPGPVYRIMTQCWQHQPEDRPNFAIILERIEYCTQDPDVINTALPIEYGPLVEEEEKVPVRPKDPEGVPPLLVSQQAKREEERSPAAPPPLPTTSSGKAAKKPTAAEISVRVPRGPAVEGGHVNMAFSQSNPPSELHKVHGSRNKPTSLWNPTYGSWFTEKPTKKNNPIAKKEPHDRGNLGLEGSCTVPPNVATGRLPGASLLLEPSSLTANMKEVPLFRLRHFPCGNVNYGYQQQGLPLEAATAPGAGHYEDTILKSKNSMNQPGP
# T1 sequence (Q9UM73 whole entry, change not shown, the tested form may be a part): as the sequence (Q9UM73 whole entry L1196M, the tested form may be a part) above, with M1196L counted along it
# Sequence of ALK [WT] (Q9UM73 19-1620): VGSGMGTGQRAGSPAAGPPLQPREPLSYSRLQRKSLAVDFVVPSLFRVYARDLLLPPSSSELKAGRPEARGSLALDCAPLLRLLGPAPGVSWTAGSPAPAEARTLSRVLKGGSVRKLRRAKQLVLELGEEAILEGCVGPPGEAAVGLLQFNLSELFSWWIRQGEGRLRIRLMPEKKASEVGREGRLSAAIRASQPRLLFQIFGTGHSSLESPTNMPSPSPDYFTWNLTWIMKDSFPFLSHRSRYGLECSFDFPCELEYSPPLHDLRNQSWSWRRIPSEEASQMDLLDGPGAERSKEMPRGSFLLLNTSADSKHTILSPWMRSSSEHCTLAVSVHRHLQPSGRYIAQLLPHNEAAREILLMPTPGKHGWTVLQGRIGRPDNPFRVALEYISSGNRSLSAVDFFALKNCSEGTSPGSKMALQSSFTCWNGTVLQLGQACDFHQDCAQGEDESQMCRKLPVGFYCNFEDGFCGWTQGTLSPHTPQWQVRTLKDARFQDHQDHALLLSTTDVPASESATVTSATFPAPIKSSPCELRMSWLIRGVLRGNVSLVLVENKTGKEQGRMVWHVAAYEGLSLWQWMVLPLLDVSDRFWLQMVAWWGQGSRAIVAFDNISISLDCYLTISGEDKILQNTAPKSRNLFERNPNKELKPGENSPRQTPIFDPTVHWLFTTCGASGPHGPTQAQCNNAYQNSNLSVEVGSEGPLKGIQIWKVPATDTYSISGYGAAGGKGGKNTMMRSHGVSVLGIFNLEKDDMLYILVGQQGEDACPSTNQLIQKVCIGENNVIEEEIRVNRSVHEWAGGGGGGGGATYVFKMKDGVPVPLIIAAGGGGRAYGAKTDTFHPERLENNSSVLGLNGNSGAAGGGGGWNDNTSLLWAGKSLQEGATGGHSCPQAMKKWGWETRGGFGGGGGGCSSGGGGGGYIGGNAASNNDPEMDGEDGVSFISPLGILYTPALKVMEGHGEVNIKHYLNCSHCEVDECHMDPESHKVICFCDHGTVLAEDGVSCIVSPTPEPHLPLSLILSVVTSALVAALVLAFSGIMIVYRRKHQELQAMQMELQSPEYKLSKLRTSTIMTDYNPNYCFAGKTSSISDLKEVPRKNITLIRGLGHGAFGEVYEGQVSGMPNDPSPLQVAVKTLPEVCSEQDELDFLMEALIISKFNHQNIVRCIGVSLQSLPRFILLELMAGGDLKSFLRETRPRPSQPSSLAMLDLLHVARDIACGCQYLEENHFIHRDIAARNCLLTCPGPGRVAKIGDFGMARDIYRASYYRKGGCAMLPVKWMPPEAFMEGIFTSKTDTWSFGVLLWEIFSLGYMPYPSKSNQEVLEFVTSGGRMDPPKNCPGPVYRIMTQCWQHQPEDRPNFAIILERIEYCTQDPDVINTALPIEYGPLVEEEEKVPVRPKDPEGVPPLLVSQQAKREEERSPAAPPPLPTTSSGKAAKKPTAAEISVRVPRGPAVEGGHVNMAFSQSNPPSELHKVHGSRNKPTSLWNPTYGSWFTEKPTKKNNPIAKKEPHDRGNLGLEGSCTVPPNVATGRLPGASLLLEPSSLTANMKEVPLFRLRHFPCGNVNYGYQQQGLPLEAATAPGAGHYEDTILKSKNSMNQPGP
# Sequence of ALK [L1196M] (Q9UM73 19-1620 L1196M): as the sequence (Q9UM73 19-1620) above, with L1178M counted along it
# Sequence of G1202R (Q9UM73 19-1620 G1202R): as the sequence (Q9UM73 19-1620) above, with G1184R counted along it
Compound,IC50 (ALK [WT]),IC50 (ALK [L1196M]),effect on I1171N/T/S (I1171N/T/S),effect on F1174C/V (F1174C/V),effect on G1202R (G1202R),IC50 (Ba/F3 parental),GI50 (Ba/F3 [EML4-ALK] [1]),Selectivity parental/ALK (Ba/F3 [EML4-ALK] [2]),GI50 (Ba/F3 [EML4-ALK L1196M] [3]),Selectivity parental/ALK[L1196M] (Ba/F3 [EML4-ALK L1196M] [4])
CCc1cc2c(cc1N1CCC(N3CCOCC3)CC1)C(C)(C)c1[nH]c3cc(C#N)ccc3c1C2=O [Alectinib],–,–,no effect,–,–,–,–,–,–,–
Cc1cc(Nc2ncc(Cl)c(Nc3ccccc3S(=O)(=O)C(C)C)n2)c(OC(C)C)cc1C1CCNCC1 [Ceritinib],–,–,–,no effect,neither of them has effect,–,–,–,–,–
"CNCCc1ccc(Nc2ncc(Cl)c(Nc3ccccc3P(C)(C)=O)n2)c(OCC(F)(F)F)n1 [Example 18, (2-((5-chloro-2-((6-(2-(methylamino)ethyl)-2-(2,2,2-trifluoroethoxy)pyridin-3-yl)amino)pyrimidin-4-yl)amino)phenyl)dimethylphosphine oxide]",10 to 50 nM,50 to 100 nM,–,–,–,≥ 1000 nM,100 to 400 nM,50~100,100 to 400 nM,0~50
"CN(C)CCc1ccc(Nc2ncc(Cl)c(Nc3ccccc3P(C)(C)=O)n2)c(OCC(F)(F)F)n1 [Example 19, (2-((5-chloro-2-((6-(2-(dimethylamino)ethyl)-2-(2,2,2-trifluoroethoxy)pyridin-3-yl)amino)pyrimidin-4-yl)amino)phenyl)dimethylphosphine oxide]",10 to 50 nM,50 to 100 nM,–,–,–,≥ 1000 nM,50 to 100 nM,100~200,100 to 400 nM,50~100

# Now from value to compound, other results behind:
IC50 (ALK [WT]),IC50 (ALK [L1196M]),Compound,effect on I1171N/T/S (I1171N/T/S),effect on F1174C/V (F1174C/V),effect on G1202R (G1202R),IC50 (Ba/F3 parental),GI50 (Ba/F3 [EML4-ALK] [1]),Selectivity parental/ALK (Ba/F3 [EML4-ALK] [2]),GI50 (Ba/F3 [EML4-ALK L1196M] [3]),Selectivity parental/ALK[L1196M] (Ba/F3 [EML4-ALK L1196M] [4])
≤ 5 nM,≤ 5 nM,"COc1nc(N2CCN(C)CC2)ccc1Nc1nc(Nc2ccccc2P(C)(C)=O)c2cc[nH]c2n1 [Example 14, (2-((2-((2-methoxy-6-(4-methylpiperazin-1-yl)pyridin-3-yl)amino)-7H-pyrrolo[2,3-d]pyrimidin-4-yl)amino)phenyl)dimethylphosphine oxide]",–,–,–,400 to 1000 nM,≤ 50 nM,50~100,≤ 50 nM,0~50
5 to 10 nM,≤ 5 nM,COc1nc(N(C)CCN(C)C)ccc1Nc1nc(Nc2ccccc2P(C)(C)=O)c2cc[nH]c2n1 [Example 15],–,–,–,≥ 1000 nM,≤ 50 nM,50~100,50 to 100 nM,0~50
≤ 5 nM,5 to 10 nM,"COc1nc(N2CCC(N3CCN(C)CC3)CC2)ccc1Nc1nc(Nc2ccccc2P(C)(C)=O)c2cc[nH]c2n1 [Example 16, (2-((2-((2-methoxy-6-(4-(4-methylpiperazin-1-yl)piperidin-1-yl)pyridin-3-yl)amino)-7H-pyrrolo[2,3-d]pyrimidin-4-yl)amino)phenyl)dimethylphosphine oxide]",–,–,–,400 to 1000 nM,≤ 50 nM,50~100,50 to 100 nM,0~50
10 to 50 nM,50 to 100 nM,"CP(C)(=O)c1ccccc1Nc1nc(Nc2ccc(CCN)nc2OCC(F)(F)F)ncc1Cl [Example 17, (2-((2-((6-(2-aminoethyl)-2-(2,2,2-trifluoroethoxy)pyridin-3-yl)amino)-5-chloropyrimidin-4-yl)amino)phenyl)dimethylphosphine oxide]",–,–,–,≥ 1000 nM,100 to 400 nM,50~100,400 to 1000 nM,0~50
